Laboratory results published in patent publication US4737513A, “Novel pyrrole derivatives” (Roussel Uclaf, priority 1984, dated 1988).

Tests used:
Format in all cases: in vivo
[1] = system: house flies; experiment: Study of knock-down activity of house flies (direct atomization in a Kearns and March chamber); details: for KT 50: concentration at 0.1 g/l, female house flies 4 days old, acetone (5%) and Isopar L; for knock-down power: general statement in the description
Method: (1) Study of knock-down activity of house flies
The test insects were female house flies 4 days old and the test was effected by direct atomization in a Kearns and March chamber using as solvent a mixture of acetone (5%) and Isopar L (petrol solvent) (quantity of solvent used, 2 ml in one second). 50 insects were used per treatment and checks were made every minute for 10 minutes, then at 15 minutes, and the KT50 was determined by the usual methods.

[2] = system: Tetranychus urticae; experiment: Activity on Tetranychus urticae, test of lethal effect on adults; details: for LD 50: females on treated bean leaves, checked after 80 hours of contact
Method: (4) Activity on Tetranychus urticae, test of lethal effect on adults
Bean plants having two cotyledon leaves were used which were treated with a Fisher gun with an acetone solution of the product. After drying, 25 females of the acaridan Tetranychus urticae were placed on each leaf, that is 50 individuals per experimental dose per plant. The efficacity was checked after 80 hours of contact, and the LD 50 was indicated in mg/hl.

[3] = system: cockroaches (Blatella germanica); experiment: Study of activity by tarsal contact on cockroaches; details: male Blatella germanica; 1 hour on dried acetone deposit; mortality checked at 24 hours, 48 hours, 3 days and 5 days
Method: (2) Study of activity by tarsal contact on cockroaches
The insects tested were male cockroaches (Blatella germanica) and the test was carried out by depositing an acetone solution of a certain concentration on the bottom of a Petri dish 20 cm in diameter. After this had dried, 20 male cockroaches were allowed to stay there per concentration for 1 hour, after which they were transferred to a healthy medium and their mortality was checked at 24 hours, 48 hours, 3 days and 5 days. The result was expressed as lethal concentration 50 (LC 50) in mg/m^2.

SMILES | KT 50 [1] [min] | further results
C#CCn1ccc(COC(=O)[C@@H]2[C@H](C=C(Br)Br)C2(C)C)c1 (relative stereo) [Example 6, [1-(2-propynyl)-1H-pyrrol-3-yl]-methyl (1R,cis) 2,2-dimethyl-3-(-dibromoethenyl)-cyclopropane carboxylate] | 4.7 | –
C=CCn1cc(COC(=O)[C@@H]2[C@H](C=C(Br)Br)C2(C)C)cc1C#N (relative stereo) [Example 54, [1-(2-propenyl)-2-cyano-1H-pyrrol-4-yl]methyl (1R,cis) 2,2-dimethyl-3-(2,2-dibromoethenyl)-cyclopropane carboxylate] | 4.7 | –
C#CCn1ccc(COC(=O)[C@@H]2[C@H](/C=C\C(=O)OC)C2(C)C)c1 [Example 1, [1-(2-propynyl)-1H-pyrrol-3-yl]-methyl (1R,cisΔZ) 2,2-dimethyl-3-(3-methoxy-3-oxo-1-propenyl)-cyclopropane carboxylate] | 1.3 | knock-down power [1]: particularly remarkable
C#CCn1ccc(COC(=O)[C@@H]2[C@H](/C=C(/F)C(=O)OCC)C2(C)C)c1 [Example 2, [1-(2-propynyl)-1H-pyrrol-3-yl]-methyl (1R,cisΔE) 2,2-dimethyl-3-(3-ethoxy-3-oxo-2-fluoro-1-propenyl)-cyclopropane carboxylate] | 1.6 | knock-down power [1]: particularly remarkable
C#CCn1ccc(COC(=O)[C@@H]2[C@H](/C=C\C(=O)OC(C)(C)C)C2(C)C)c1 [Example 3, [1-(2-propynyl)-1H-pyrrol-3-yl]-methyl (1R,cis,ΔZ) 2,2-dimethyl-3-(3-tert-butyloxy-3-oxo-1-propenyl)-cyclopropane carboxylate] | 5.8 | –
C#CCn1ccc(COC(=O)[C@@H]2[C@H](/C=C(/F)C(=O)OC)C2(C)C)c1 [Example 4, [1-(2-propynyl)-1H-pyrrol-3-yl]-methyl (1R,cisΔE) 2,2-dimethyl-3-(3-methoxy-3-oxo-2-fluoro-1-propenyl)-cyclopropane carboxylate] | 2.4 | –
C#CCn1ccc(COC(=O)[C@@H]2[C@H](/C=C(/F)C(=O)OC(C)(C)C)C2(C)C)c1 [Example 5, [1-(2-propynyl)-1H-pyrrol-3-yl]-methyl (1R,cis,ΔE) 2,2-dimethyl-3-(3-tert-butoxy-3-oxo-2-fluoro-1-propenyl)-cyclopropane carboxylate] | 3.2 | –
C#CCn1ccc(C(C#N)OC(=O)[C@@H]2[C@H](/C=C(/F)C(=O)OCC)C2(C)C)c1 (stereo partly drawn) [Example 15, cyano-[1-(2-propynyl)-1H-pyrrol-3-yl]-methyl (1R,cisΔE) 2,2-dimethyl-3-(3-ethoxy-3-oxo-2-fluoro-1-propenyl)-cyclopropane carboxylate] | 1.8 | knock-down power [1]: particularly remarkable
C#CCn1ccc(COC(=O)[C@@H]2[C@H](C=C(Br)Br)C2(C)C)c1C#N [Example 26] | 3.5 | –
C#CCn1ccc(COC(=O)[C@@H]2[C@H](/C=C(/F)C(=O)OC(C)(C)C)C2(C)C)c1C(F)(F)F [Example 40, [2-trifluoromethyl-1-(2-propynyl)-1H-pyrrol-3-yl]-methyl (1R,cis,ΔE) 2,2-dimethyl-3-(3-tertbutyloxy-3-oxo-2-fluoropenyl)-cyclopropane carboxylate] | 5.6 | knock-down power [1]: particularly remarkable; acaricidal effect on Tetranychus urticae ([2]; conclusion of the test): remarkable acaricidal effect; LD 50 [2]: 32 mg/hl
C#CCn1cc(C(C#N)OC(=O)[C@@H]2[C@H](/C=C(/F)C(=O)OCC)C2(C)C)cc1C#N (stereo partly drawn) [Example 44] | 2.2 | –
C#CCn1cc(COC(=O)[C@@H]2[C@H](/C=C(/F)C(=O)OC(C)(C)C)C2(C)C)c(C(F)(F)F)c1 [Example 45, [1-(2-propynyl)-3-trifluoromethyl)-1H-pyrrol-4-yl]methyl (1R,cisΔE) 2,2-dimethyl-3-[2-fluoro-3-oxo-3-tertbutoxypropenyl]-cyclopropane carboxylate] | 6.1 | LD 50 [2]: 264 mg/hl; lethal concentration 50 (LC 50) [3]: 6.4 mg/m^2
C=CCn1ccc(C(C#N)OC(=O)[C@@H]2[C@H](C=C(Br)Br)C2(C)C)c1 (stereo partly drawn) [Example 50, (R,S)-cyano-[1-(2-propenyl)-1H-pyrrol-3-yl]methyl (1R,cis) 2,2-dimethyl-3-(2,2-dibromoethenyl)cyclopropane carboxylate] | 3.5 | –
C#CCn1ccc(COC(=O)[C@@H]2[C@H](/C=C\C(=O)OC)C2(C)C)c1C#N [Example 51, [1-(2-propynyl)-2-cyano-1H-pyrrol-3-yl]methyl (1R,cis) 2,2-dimethyl-3-(3-methoxy-3-oxo-1-propenyl)cyclopropane carboxylate] | 1.9 | –
C#CCn1ccc(COC(=O)[C@@H]2[C@H](/C=C(/F)C(=O)OCC)C2(C)C)c1C#N [Example 52, [1-(2-propynyl)-2-cyano-1H-pyrrol-3-yl]methyl (1R,cis) 2,2-dimethyl-3-(2-fluoro-2-ethoxy-2-oxo-1-propenyl)cyclopropane carboxylate] | 1.5 | –
C=CCn1cc(COC(=O)[C@@H]2[C@H](/C=C(/F)C(=O)OCC)C2(C)C)cc1C#N [Example 53, [1-(2-propenyl)-2-cyano-1H-pyrrol-4-yl]methyl (1R,cisΔE) 2,2-dimethyl-3-[2-fluoro-2-ethoxy-2-oxo-1-propenyl]cyclopropane carboxylate] | 2.4 | –
C=CCn1cc(C(C#N)OC(=O)[C@@H]2[C@H](C=C(Br)Br)C2(C)C)cc1C#N (stereo partly drawn) [Example 55, (R,S)-cyano-[1-(2-propenyl)-2-cyano-1H-pyrrol-4-yl]-methyl (1R,cis) 2,2-dimethyl-3-(2,2-dibromoethenyl)-cyclopropane carboxylate] | 8.7 | –
C=CCn1ccc(COC(=O)[C@@H]2[C@H](/C=C(/F)C(=O)OCC)C2(C)C)c1 [Example 56, 1-(2-propenyl-1H-pyrrol-3-yl)-methyl (1R,cisΔE) 2,2-dimethyl-3-(2-fluoro-3-ethoxy 3-oxo-1-propenyl)-cyclopropane carboxylate] | 4.0 | –
C#CCn1cc(C(C#C)OC(=O)[C@@H]2[C@H](/C=C(/F)C(=O)OCC)C2(C)C)cc1C#N (stereo partly drawn) [Example 57, [1-(2-propynyl)-2-cyano-1H-pyrrol-4-yl]-propyn-2-yl (1R,cisΔE) 2,2-dimethyl-3-[2-fluoro-3-ethoxy-3-oxo-1-propenyl]-cyclopropane carboxylate] | 4.0 | –
C#CCn1cc(C(C)OC(=O)[C@@H]2[C@H](/C=C(/F)C(=O)OCC)C2(C)C)cc1C#N (stereo partly drawn) [Example 60, [1-(2-propynyl)-2-cyano-1H-pyrrol-4-yl]-ethyl (1R,cisΔE) 2,2-dimethyl-3-(2-fluoro-3-ethoxy-3-oxo-1-propenyl)-cyclopropane carboxylate] | 1.8 | –
CCOC(=O)/C(F)=C\[C@H]1[C@@H](C(=O)OCc2cc(C#N)n(C/C=C\Cl)c2)C1(C)C [Example 65, [2-cyano-[1-(3-chloro-2-(Z)-propenyl]-1H-pyrrol-4-yl]-methyl (1R,cis,ΔE) 2,2-dimethyl-3-(2-fluoro-3-ethoxy-3-oxo-1-propenyl)-cyclopropane carboxylate] | 3.1 | –
CCOC(=O)/C(F)=C\[C@H]1[C@@H](C(=O)OCc2cc(C#N)n(C/C=C/Cl)c2)C1(C)C [Example 66, [2-cyano-1-[3-chloro-2-(E)-propenyl]-1H-pyrrol-4-yl]-methyl (1R,cisΔE) 2,2-dimethyl-3-[2-fluoro-3-ethoxy-3-oxo-1-propenyl]-cyclopropane carboxylate] | 7.9 | –
C#CCn1ccc(C(C#N)OC(=O)[C@@H]2[C@H](/C=C(/F)C(=O)OCC)C2(C)C)c1C#N (stereo partly drawn) [Example 67, (R,S) cyano[1-(2-propynyl)-2-cyano-1H-pyrrol-3-yl]-methyl (1R,cisΔE) 2,2-dimethyl-3-(2-fluoro-3-ethoxy-3-oxo-1-propenyl)-cyclopropane carboxylate] | 3.8 | –
C#CCn1cc(COC(=O)[C@@H]2[C@H](/C=C(/F)C(=O)OCC)C2(C)C)cc1C(F)(F)F [Example 70, [1-(2-propynyl)-2,2,2-trifluoromethyl-1H-pyrrol-4-yl]-methyl (1R,cis,ΔE) 2,2-dimethyl-3-[2-fluoro-3-ethoxy-3-oxo-1-propenyl]-cyclopropane carboxylate] | 3.9 | LD 50 [2]: 2126 mg/hl; lethal concentration 50 (LC 50) [3]: 4.5 mg/m^2
C#CCn1cc(COC(=O)[C@@H]2[C@H](/C=C(/F)C(=O)OCC)C2(C)C)c(C(F)(F)F)c1 [Example 72, [1-(2-propynyl)-3,3,3-trifluoromethyl-1H-pyrrol-4-yl]methyl (1R,cis,ΔE) 2,2-dimethyl-3-[2-fluoro-3-ethoxy-3-oxo-1-propenyl]-cyclopropane carboxylate] | 3.8 | lethal concentration 50 (LC 50) [3]: 6.7 mg/m^2
